Ends that are not written are not given here.
Tests used:
fasted rats = settings: cited from earlier work
Mice [1] = test: Appetite suppression in mice, 20% sucrose solution consumption; format: in vivo; settings: intraperitoneal injection, 50 micrograms
Description: Mice were deprived of their normal feed for two days and given free access to a 20% sucrose solution on the first day of feed deprivation. After the 2-day feed deprivation period, mice were injected intraperitoneally with 0.5 ml of a solution containing the test substance. Thirty minutes after injection, individual mice were placed in one of eight 15 cm^2 test box with a stainless steel grid floor and a glass drinking tube which projected into the box. The drinking tube was connected to a reservoir containing a 20% sucrose solution, and the interior of the drinking tube contained an electrode enabling the detection of drinking contacts with the solution by measuring the flow of a weak (unnoticeable) electric current through mice by means of an electronic apparatus connected to the drinking tube electrode and the stainless steel grid floor. Consumption of the sucrose solution was measured over a 10 minute period by electronically recording the total amount of contact with the sucrose solution during the test session. The degree of appetite suppression produced by a given test substance was determined by statistical comparison of the duration of sucrose consumption by control (vehicle treated) mice with that of mice treated with a test substance. The degree of appetite suppression in a treated group of mice was expressed as percent of the control groups response. […]

Mice [2] = test: Appetite suppression in mice, infant formula milk (Complan) consumption; format: in vivo
Description: Mice were deprived of their normal feed for two days and given free access to a 20% sucrose solution on the first day of feed deprivation. After the 2-day feed deprivation period, mice were injected intraperitoneally with 0.5 ml of a solution containing the test substance. Thirty minutes after injection, individual mice were placed in one of eight 15 cm^2 test box with a stainless steel grid floor and a glass drinking tube which projected into the box. The drinking tube was connected to a reservoir containing a 20% sucrose solution, and the interior of the drinking tube contained an electrode enabling the detection of drinking contacts with the solution by measuring the flow of a weak (unnoticeable) electric current through mice by means of an electronic apparatus connected to the drinking tube electrode and the stainless steel grid floor. Consumption of the sucrose solution was measured over a 10 minute period by electronically recording the total amount of contact with the sucrose solution during the test session. The degree of appetite suppression produced by a given test substance was determined by statistical comparison of the duration of sucrose consumption by control (vehicle treated) mice with that of mice treated with a test substance. The degree of appetite suppression in a treated group of mice was expressed as percent of the control groups response.
The method is as in Example 5, but instead of 20% sucrose, a solution of infant formula milk (Complan®) is used. The test substance is dissolved in a vehicle consisting of phosphate buffered saline with 1% albumin. Test substances dissolved in vehicle are injected either intravenously (IV) in a volume of 100 microliters, or intra-cerebroventricularly (ICV) in a volume of 10 microliters.
Mice were tested for appetite suppression as described in Example 8 after treatment with a test substance consisting of synthetic human GLP-2.

Glucagon
effect on food intake (fasted rats; fasted rats, intraperitoneal administration of pharmacological doses): no effect on food intake

HADGSFSDEMNTVLDNLATRDFINWLLHTKITD [synthetic porcine GLP-2, porcine GLP-2]
suppression of sucrose consumption (Mice [1]): 38%

GLP-1
effect on feeding (fasted rats; fasted rats, intracerebroventricular (ICV) administration): inhibited feeding
effect on feeding behaviour (fasted rats; peripheral administration): no effect on feeding behaviour

CC[C@H](C)[C@H](NC(=O)[C@H](Cc1ccccc1)NC(=O)[C@H](CC(=O)O)NC(=O)[C@H](CCCNC(=N)N)NC(=O)[C@H](C)NC(=O)[C@H](C)NC(=O)[C@H](CC(C)C)NC(=O)[C@H](CC(N)=O)NC(=O)[C@H](CC(=O)O)NC(=O)[C@H](CC(C)C)NC(=O)[C@@H](NC(=O)[C@@H](NC(=O)[C@H](CC(N)=O)NC(=O)[C@H](CCSC)NC(=O)[C@H](CCC(=O)O)NC(=O)[C@H](CC(=O)O)NC(=O)[C@H](CO)NC(=O)[C@H](Cc1ccccc1)NC(=O)[C@H](CO)NC(=O)CNC(=O)[C@H](CC(=O)O)NC(=O)[C@H](C)NC(=O)[C@@H](N)Cc1c[nH]cn1)[C@@H](C)O)[C@@H](C)CC)C(=O)N[C@@H](CC(N)=O)C(=O)N[C@@H](Cc1c[nH]c2ccccc12)C(=O)N[C@@H](CC(C)C)C(=O)N[C@H](C(=O)N[C@@H](CCC(N)=O)C(=O)N[C@H](C(=O)N[C@@H](CCCCN)C(=O)N[C@H](C(=O)N[C@H](C(=O)N[C@@H](CC(=O)O)C(=O)O)[C@@H](C)O)[C@@H](C)CC)[C@@H](C)O)[C@@H](C)CC [synthetic human GLP-2, human GLP-2]
suppression of milk consumption (Mice [2]; ICV injection, 3 micrograms): 32%
suppression of milk consumption (Mice [2]; ICV injection, 10 micrograms): 35%
suppression of milk consumption (Mice [2]; IV injection, 3 micrograms): 24%

From patent US5912229A, “Use of a pharmaceutical composition comprising an appetite-suppressing peptide” (Novo Nordisk Als, priority 1996, dated 1999)
